Results: patent US20030175912A1, “Method of producing L-serine by fermentation” (AJINOMOTO CO. INC, priority 1998, published 2003)

Assays:
[1] = system: Brevibacterium flavum AJ13325; test: Growth in the presence of β-(2-thienyl)-DL-alanine; format: cell-based; conditions: 0.25 g/L of β-(2-thienyl)-DL-alanine
Procedure: Similarly, the term “β-(2-thienyl)-DL-alanine resistance” refers to the property that a bacterium grows faster than the wild type in a medium containing β-(2-thienyl)-DL-alanine. For example, those strains that form colonies on a solid medium containing 0.25 g/L of β-(2-thienyl)-DL-alanine at 30° C. within 4 to 5 days are said to have β-(2-thienyl)-DL-alanine resistance.
(§1) To select β-(2-thienyl)-DL-alanine resistant strains from NG treated strains using Brevibacterium flavum AJ13377 as a parent strain, Brevibacterium flavum AJ13377 cells were NG treated and washed before their inoculation on a minimal medium for selection. The minimal medium for selection was a medium that contained 20 g of glucose, 1 g of ammonium sulfate, 1 g of potassium dihydrogen phosphate, 2.5 g of urea, 0.4 g of magnesium sulfate heptahydrate, 0.01 g of iron (II) sulfate heptahydrate, 0.01 g of manganese sulfate tetra- to pentahydrate, 50 μg of biotin, 200 μg of thiamin hydrochloride, 200 μg of nicotinic acid amide, and 250 mg of β-(2-thienyl)-DL-alanine per liter of distilled water. The NG treated mutant was incubated in the above-described medium at 30° C. for 5 to 10 days. The cell culture thus obtained was spread on a bouillon agar medium and incubated at 30° C. for 24 hours for colony formation. β-(2-Thienyl)-DL-alanine resistant strains were obtained from the strains that formed colonies. […]

[2] = system: 3-PGDH derived from Brevibacterium flavum AJ13327; test: Feedback inhibition of 3-PGDH by L-serine, enzyme of AJ13327; format: biochemical
Procedure: (§2) After collecting cells from the culture broth of each strain, the cells were washed twice with physiological saline and suspended in 50 mM sodium phosphate buffer (pH 7.0) containing 2 mM dithiothreitol. After ice cooling, the suspension was subjected to a sonicator to fragment the cells and the resulting liquid was ultracentrifuged. The ultracentrifugaton was run at 45,000 rpm for 1 hour to obtain a crude enzyme solution.
(§3) The enzyme activity of 3-PGDH was measured by the method of Salach H. J. et al. (Method in Enzymology, vol 9, 216-220 (1966)).
[…] Then, 0.2 ml of the crude enzyme solution was added and the temperature was kept the same for 5 minutes. Thereafter, 0.5 ml of 0.1 M 3-PGA (3-phosphoglycerate disodium salt, pH 7, NaOH) was added. After stirring, the absorbance at 340 nm of the reaction mixture was measured for 30 seconds. The reaction was carried out at 25° C.
(§4) For the measurement of activity, Hitachi U-2000A spectrophotometer was used.

[3] = system: 3-PGDH derived from AJ13325 strain; test: Feedback inhibition of 3-PGDH by L-serine, enzyme of AJ13325; format: biochemical, Brevibacterium flavum; conditions: compared with AJ13324; FIG. 1
Procedure: as §2, §3
(§5) More specifically, 0.4 ml of 0.015 M NAD, 0.12 ml of 0.25 M EDTA (pH 9, NaOH), 0.1 ml of 0.05 M glutathione (pH 6, KOH), 0.5 ml of 1 M hydrazine (pH 9, acetate), 0.6 ml of 1 M Tris (pH 9, HCl), a suitable concentration of L-serine (0 to 40 mM), and water to make 2.3 ml, warmed to 25° C. in advance, were added. Then, 0.2 ml of the crude enzyme solution was added and the temperature was kept the same for 5 minutes. Thereafter, 0.5 ml of 0.1 M 3-PGA (3-phosphoglycerate disodium salt, pH 7, NaOH) was added. After stirring, the absorbance at 340 nm of the reaction mixture was measured for 30 seconds. The reaction was carried out at 25° C.
as §4

[4] = system: 3-PGDH derived from AJ13377 strain; test: Feedback inhibition of 3-PGDH by L-serine, enzyme of AJ13377; format: biochemical, Brevibacterium flavum; conditions: compared with wild type strain ATCC 14067; FIG. 1
Procedure: as §2, §3, §5, §4

[5] = system: 3-PGDH derived from AJ13324 strain; test: Feedback inhibition of 3-PGDH by L-serine, enzyme of AJ13324; format: biochemical, Brevibacterium flavum; conditions: compared with AJ13377; FIG. 1
Procedure: as §2, §3, §5, §4

[6] = system: 3-PGDH derived from a wild type coryneform bacterium (ATCC 14067); test: Feedback inhibition of 3-PGDH by L-serine, enzyme of wild type strain; format: biochemical, Brevibacterium flavum; conditions: 10 mM of L-serine
Procedure: as §2, §3, §5, §4

[7] = system: Brevibacterium flavum AJ13324 and AJ13327; test: Growth in the presence of azaserine; format: cell-based; conditions: 0.25 g/L of azaserine
Procedure: More specifically, for example, the term “azaserine resistance” refers to the property that a bacterium grows faster than the wild type in a medium containing azaserine. For example, those strains that form colonies on a solid medium containing 0.25 g/L of azaserine at 30° C. within 4 to 5 days are said to have azaserine resistance.
as §1, with “azaserine” for “β-(2-thienyl)-DL-alanine”, “strain, NG treated” for “strain,”, “cells after washed” for “cells”, “inoculated” for “NG treated and washed before their inoculation”, “Azaserine” for “β-(2-Thienyl)-DL-alanine”, “colonies. The mutants thus obtained included many strains that accumulated L-serine in considerable amounts at high yields.” for “colonies.”

SMILES: NC(Cc1cccs1)C(=O)O (racemic) [β-(2-thienyl)-DL-alanine]
- growth of resistant strains in the presence of β-(2-thienyl)-DL-alanine [1]: able to grow

SMILES: N[C@@H](CO)C(=O)O [L-serine]
- feedback inhibition of 3-PGDH by L-serine ([2]; 80 mM L-serine, FIG. 1): completely desensitized
- 3-PGDH activity retained in the presence of L-serine ([2]; 80 mM of L-serine, relative to activity in the absence of L-serine): ~100%
- L-serine sensitivity of 3-PGDH [3]: of the same level as the AJ13324 strain
- L-serine sensitivity of 3-PGDH [4]: relieved of L-serine sensitivity
- L-serine sensitivity of 3-PGDH [5]: more relieved of L-serine sensitivity
- inhibition of 3-PGDH activity by L-serine [6]: almost completely inhibited

SMILES: [N-]=[N+]=CC(=O)OC[C@H](N)C(=O)O [azaserine]
- growth of resistant strains in the presence of azaserine [7]: able to grow
